Here are results for three molecules from patent US20150126467A1, “USE OF ALGINATE OLIGOMERS TO ENHANCE THE EFFECTS OF ANTIFUNGAL AGENTS” (AlgiIPharma AS, priority 2011, published 2015).

Assay [1] deals with Cryptococcus neoformans CCUG 23451. Description: Robotic MIC assay, Cryptococcus neoformans (Example 6). The note with it: for MIC: Cryptococcus neoformans, read-out: Minimum Inhibitory Concentration (MIC); for effect on MIC when OligoG is added to the medium: media: RPMI with 2% glucose. It counts as cell-based. As to the method: Cryptococcus sp. was grown at 30° C. for 96 h on YM-agar. Spores and aerial mycelium was cut out from the agar, suspended in 1 ml YM-broth and dispersed with glass beads (1 mm) in a mini bead beater for 2 min. The suspension was added glycerol to 10% and frozen at −80° C. Each batch of frozen stock culture was then characterized in separate growth experiments using Mueller-Hinton and RPMI to determine the minimum amount of inoculum giving satisfactory growth after 48 h under the conditions relevant for the MIC assay. This inoculum procedure is used in order to reduce day to day variation in bioassays.
Robotic minimum inhibitory concentration (MIC) assay was performed as follows. OligoG CF-5/20 was dissolved in medium (Mueller-Hinton, RPMI with 2% glucose, Sabouraud or YM) to 1.25 times of the desired assay concentrations (2, 6 and 10%). […].
Two-fold serial dilutions of antifungal agents were made in medium with different concentrations of OligoG CF-5/20, and the solutions were placed in four parallel wells in Nunc 384-well micro plates (30 μl per well in Nunc 242757 microplates). A group of 8 wells with no addition of antifungal agents for each OligoG CF-5/20 concentration was included on each micro plate as growth reference. Each well in the 384-well assay plates was added 7.5 μl of the medium innoculated with frozen stock culture of the relevant strains.
The microplates were placed in plastic bags and incubated without shaking at 34° C. The optical density at 600 nm in the microwells was measured after certain time points from 24 h to 96 h of incubation. […]

The subject of assay [2] is Aspergillus fumigatus CCUG 17460. In words: Robotic MIC assay, Aspergillus (Example 4). The assay is classed as cell-based. The following applies: Aspergillus fumigatus, CCUG17460, 48 h, Mueller-Hinton broth, read-out: Minimum Inhibitory Concentration (MIC). The method, boiled down:
(§1)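 Frozen spore/mycelium stocks were used as inoculum, sized for adequate 48 h growth. Two-fold antifungal dilutions were prepared in Mueller-Hinton broth with OligoG CF-5/20 (2, 6 or 10% assay concentrations; quadruplicate wells). Plates were incubated static at 34 °C, with OD600 read at about 24 and 48 h.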

Assay [3] has as its system Aspergillus niger CCUG 18919. In words: Robotic MIC assay, Aspergillus (Example 4). The note with it: Aspergillus niger, CCUG18919, 48 h, Mueller-Hinton broth, read-out: Minimum Inhibitory Concentration (MIC). The assay is classed as cell-based. In outline: as §1
The test system of assay [4] is C. parapsillosis ATCC 22019T. In words: Robotic MIC assay, Candida strains (Example 2). It counts as cell-based, Candida parapsilosis. The following applies: Lodderomyces parapsilosis, ATCC22019, 48 h, Mueller-Hinton broth, read-out: Minimum Inhibitory Concentration (MIC). The protocol: A robotic MIC Assay was performed as follows. OligoG CF-5/20 were dissolved in medium (Mueller-Hinton broth or M19 broth depending on experiment) to 1.25 times of the desired assay concentrations (2, 6 and 10%). The antifungal agents under test were dissolved in medium without OligoG CF-5/20 and in medium with OligoG CF-5/20 at a concentration of 1.25 times the highest desired assay concentrations. For experiments where the effect of adding different concentrations of Na^+ was investigated, NaCl was dissolved in medium to the desired concentrations (10, 30 and 50 mM).
Two-fold serial dilutions of antifungal agents were made in medium with different concentrations of OligoG CF-5/20, and the solutions were placed in four parallel wells in Nunc 384-well micro plates (30 μl per well in Nunc 242757 microplates). A group of 8 wells with no addition of antifungal agents for each OligoG CF-5/20 concentration was included on each microplate as growth reference. To each well in the 384-well assay plates was added 7.5 μl of medium inoculated with a frozen stock culture of Candida albicans (strain CCUG 39343).
The micro plates were placed in plastic bags and incubated without shaking at 34° C. The optical density at 600 nm in the microwells was measured after approximately 13, 18, 24 and 34 hours of incubation, and the relative growth yield in each well was calculated based on the growth in the reference groups.
The robotic assay described in Example 1 was employed in this Example. Strains were grown in Mueller-Hinton broth (LAB114 from Lab M Limited) and MIC values (μg ml-1) were determined for each antifungal after incubation for 48 h in the presence of 0, 2, 6 and 10% OligoG CF-5/20 G-fragments. […] OligoG CF-5/20 G-fragments were provided by AlgiPharma AS, Norway.
Candida strains used were as follows: • C. albicans CCUG 39343 (strain from culture collection) • C. parapsillosis ATCC 22019T (strain from culture collection) • C. krusei 141/03 (candidosis) • C. krusei 249/03(2) (ulceration) • C. lusitaniae 994/01(2) (candidosis) • C. tropicalis 12 (vaginal) • C. tropicalis 75 (vaginal) • C. tropicalis 519468 (urinary) • C. tropicalis 544123 (urinary) • C. tropicalis 250/03 (candidosis) • C. tropicalis AG1 (oral) • C. tropicalis T2.2 (oral)

[5] abbreviates: CCUG23451, 72 h, RPMI 2% GLU, 0% OligoG, 72 hours.
The mark [6] stands for this setting: CCUG23451, 72 h, RPMI 2% GLU, 2% OligoG, 72 hours.
Setting [7] is: CCUG23451, 72 h, RPMI 2% GLU, 6% OligoG, 72 hours.
Setting [8] is: CCUG23451, 72 h, Sabouraud, 0% OligoG, 72 hours.
Setting [9] is: CCUG23451, 72 h, Sabouraud, 2% OligoG, 72 hours.
Where [10] appears, read: CCUG23451, 72 h, Sabouraud, 6% OligoG, 72 hours.
Setting [11] is: CCUG23451, 72 h, YM, 0% OligoG, 72 hours.
Setting [12] is: CCUG23451, 72 h, YM, 2% OligoG, 72 hours.
Where [13] appears, read: CCUG23451, 96 h, MH, 0% OligoG, 96 hours.
The mark [14] stands for this setting: CCUG23451, 96 h, MH, 2% OligoG, 96 hours.
The mark [15] stands for this setting: CCUG23451, 96 h, RPMI 2% GLU, 0% OligoG, 96 hours.
[16] abbreviates: CCUG23451, 96 h, RPMI 2% GLU, 2% OligoG, 96 hours.
[17] abbreviates: CCUG23451, 96 h, RPMI 2% GLU, 6% OligoG, 96 hours.
[18] abbreviates: CCUG23451, 96 h, Sabouraud, 0% OligoG, 96 hours.
The mark [19] stands for this setting: CCUG23451, 96 h, Sabouraud, 2% OligoG, 96 hours.
Setting [20] is: CCUG23451, 96 h, Sabouraud, 6% OligoG, 96 hours.
Setting [21] is: CCUG23451, 96 h, YM, 0% OligoG, 96 hours.
Where [22] appears, read: CCUG23451, 96 h, YM, 2% OligoG, 96 hours.
The mark [23] stands for this setting: A. fumigatus CCUG 17460, 0% OligoG.
Where [24] appears, read: A. fumigatus CCUG 17460, 2% OligoG.
Setting [25] is: A. fumigatus CCUG 17460, 6% OligoG.
The mark [26] stands for this setting: A. fumigatus CCUG 17460, 10% OligoG.
Setting [27] is: A. niger CCUG 18919, 10% OligoG.

Values after ≈ are worked out from the molar mass of the structure shown. Like-named read-outs stand apart in the source and are kept apart here.

As to `C[C@@H]1[C@H](O)[C@@H](C)/C=C/C=C/C=C/C=C/C=C/C=C/C=C/[C@H](O[C@@H]2O[C@H](C)[C@@H](O)[C@H](N)[C@@H]2O)C[C@@H]2O[C@](O)(C[C@@H](O)C[C@@H](O)[C@H](O)CC[C@@H](O)C[C@@H](O)CC(=O)O[C@H]1C)C[C@H](O)[C@H]2C(=O)O` [Amphotericin B, amphotericin B], the MIC was more than 1.5 µg/mL in assay [1] (setting [5]); 1.5 µg/mL (≈ 1.62 µM) in assay [1] (setting [6]); 0.75 µg/mL (≈ 0.812 µM) in assay [1] (setting [7]); 0.188 µg/mL (≈ 0.203 µM) in assay [1] (setting [8]); 0.0938 µg/mL (≈ 0.101 µM) in assay [1] (setting [9]); 0.0117 µg/mL (≈ 0.0127 µM) in assay [1] (setting [10]). The MIC in assay [1] (setting [11]) is more than 1.5 µg/mL; in assay [1] (setting [12]), 1.5 µg/mL (≈ 1.62 µM); in assay [1] (setting [13]), 1.5 µg/mL (≈ 1.62 µM); in assay [1] (setting [14]), 0.188 µg/mL (≈ 0.203 µM); in assay [1] (setting [15]), more than 1.5 µg/mL; in assay [1] (setting [16]), more than 1.5 µg/mL. The MIC was 1.5 µg/mL (≈ 1.62 µM) in assay [1] (setting [17]); 0.75 µg/mL (≈ 0.812 µM) in assay [1] (CCUG23451, 96 h, RPMI 2% GLU, 10% OligoG, 96 hours); 0.375 µg/mL (≈ 0.406 µM) in assay [1] (setting [18]); 0.0938 µg/mL (≈ 0.101 µM) in assay [1] (setting [19]); 0.0234 µg/mL (≈ 0.0253 µM) in assay [1] (setting [20]); more than 1.5 µg/mL in assay [1] (setting [21]). Besides, the MIC in assay [1] (setting [22]) amounted to 1.5 µg/mL (≈ 1.62 µM); in assay [2] (setting [23]) it was 0.75 µg/mL (≈ 0.812 µM); in assay [2] (setting [24]), 0.375 µg/mL (≈ 0.406 µM); in assay [2] (setting [25]), 0.375 µg/mL (≈ 0.406 µM); in assay [2] (setting [26]), 0.188 µg/mL (≈ 0.203 µM); in assay [3] (A. niger CCUG 18919, 0% OligoG) it was 0.188 µg/mL (≈ 0.203 µM). Besides, the MIC was 0.188 µg/mL (≈ 0.203 µM) in assay [3] (A. niger CCUG 18919, 2% OligoG); 0.0938 µg/mL (≈ 0.101 µM) in assay [3] (A. niger CCUG 18919, 6% OligoG); 0.0469 µg/mL (≈ 0.0507 µM) in assay [3] (setting [27]). Besides, in assay [1] (MH, Sabouraud, YM), the “effect on MIC when OligoG is added to the medium” value is recorded as “reduction in MIC in all media tested”.
On to `Clc1ccc(COC(Cn2ccnc2)c2ccc(Cl)cc2Cl)c(Cl)c1` (stereo not shown) [Miconazole, miconazole], for which the MIC in assay [1] (setting [5]) is 4 µg/mL (≈ 9.61 µM); in assay [1] (setting [6]), 2 µg/mL (≈ 4.81 µM); in assay [1] (setting [7]), 0.5 µg/mL (≈ 1.2 µM); in assay [1] (setting [8]), less than 0.0156 µg/mL; in assay [1] (setting [9]) it was 0.0625 µg/mL (≈ 0.15 µM); in assay [1] (setting [10]), 0.00781 µg/mL (≈ 0.0188 µM). For the same molecule, the MIC was 0.5 µg/mL (≈ 1.2 µM) in assay [1] (setting [11]); 0.5 µg/mL (≈ 1.2 µM) in assay [1] (setting [12]); 1 µg/mL (≈ 2.4 µM) in assay [1] (setting [13]); 0.125 µg/mL (≈ 0.3 µM) in assay [1] (setting [14]); 4 µg/mL (≈ 9.61 µM) in assay [1] (setting [15]); 2 µg/mL (≈ 4.81 µM) in assay [1] (setting [16]). Besides, the MIC in assay [1] (setting [17]) was 1 µg/mL (≈ 2.4 µM); in assay [1] (setting [18]), 0.0625 µg/mL (≈ 0.15 µM); in assay [1] (setting [19]), 0.25 µg/mL (≈ 0.601 µM); in assay [1] (setting [20]), 0.5 µg/mL (≈ 1.2 µM); in assay [1] (setting [21]) it was 0.5 µg/mL (≈ 1.2 µM); in assay [1] (setting [22]), 1 µg/mL (≈ 2.4 µM). Besides, the MIC in assay [2] (setting [23]) is 4 µg/mL (≈ 9.61 µM); in assay [2] (setting [24]) it was 2 µg/mL (≈ 4.81 µM); in assay [2] (setting [25]) it was 2 µg/mL (≈ 4.81 µM); in assay [2] (setting [26]), 2 µg/mL (≈ 4.81 µM); in assay [3] (A. niger CCUG 18919, 0% OligoG), 1 µg/mL (≈ 2.4 µM); in assay [3] (A. niger CCUG 18919, 2% OligoG), 0.5 µg/mL (≈ 1.2 µM). Further, the MIC in assay [3] (A. niger CCUG 18919, 6% OligoG) was 0.25 µg/mL (≈ 0.601 µM); in assay [3] (setting [27]), 0.25 µg/mL (≈ 0.601 µM). In addition, the “effect on MIC when OligoG is added to the medium” value in assay [1] (MH, Sabouraud, YM) is “reduction in MIC in RPMI with glucose and in MH medium”.
Consider `CN(C/C=C/C#CC(C)(C)C)Cc1cccc2ccccc12` [Terbinafine, terbinafine], for which the MIC was 2 µg/mL (≈ 6.86 µM) in assay [4] (0% OligoG); 1 µg/mL (≈ 3.43 µM) in assay [4] (2% OligoG); 2 µg/mL (≈ 6.86 µM) in assay [4] (6% OligoG); 1 µg/mL (≈ 3.43 µM) in assay [4] (10% OligoG); 4 µg/mL (≈ 13.7 µM) in assay [2] (setting [23]); 4 µg/mL (≈ 13.7 µM) in assay [2] (setting [24]). Moreover, the MIC amounted to 4 µg/mL (≈ 13.7 µM) in assay [2] (setting [25]); 2 µg/mL (≈ 6.86 µM) in assay [2] (setting [26]); 0.5 µg/mL (≈ 1.72 µM) in assay [3] (A. niger CCUG 18919, 0% OligoG); 0.25 µg/mL (≈ 0.858 µM) in assay [3] (A. niger CCUG 18919, 2% OligoG); 0.0625 µg/mL (≈ 0.214 µM) in assay [3] (A. niger CCUG 18919, 6% OligoG); 0.125 µg/mL (≈ 0.429 µM) in assay [3] (setting [27]).
